What was measured:
Assay type in all cases: cell-based
fungi = assay: Antifungal activity (general statement); conditions: noted by Applicants, no test described
From the text: Applicants envision that the present invention is also useful for providing antifungal compounds and organisms engineered to express antifungal compounds. Preferably, one would measure the antifungal properties of a compound in the manner of N. Lomovskaya, et al., Microbiology 143:875-883, 1997. Measurement of inhibition of yeast growth can be found in R. Ikeura, et al., J. Antibiotics 41:1148, 1988. The same general methods could be used for all fungi. Both of these references are hereby incorporated by reference.

[1] = test system: A. nidulans strains WMH1739 and WMH1740 (WMH1738 transformed with pWHM1263); assay: Lovastatin resistance test: spore suspension streaked on solid AMM plates containing lovastatin
Protocol: (§1) This strain WMH1738 was transformed to hygromycin B resistance with pWHM1263. Transformant colonies were screened for lovastatin resistance and for the production of new metabolites as described below and two strains WMH1739 and WMH1740 were chosen for further analysis. […] This was analyzed by streaking 10 μl of a spore suspension on solid AMM plates containing lovastatin at 0, 0.1, 0.5, 1, 5, 10, 50 and 100 μg/ml and incubating at 37° C. Strains WMH1739 and WMH1740 were compared to strains WMH1741 and WMH1742 which were derivatives of WMH1738 transformed to hygromycin resistance with AN26. […] The two lovastatin resistant strains were fermented in lovastatin-producing conditions using fermentation method B and extracts were analyzed for lovastatin related metabolites as described below. […] One compound that was common to both comigrated with monacolin J on TLC and HPLC analysis by the methods described below. Semi-preparative HPLC was used to partially purify some of this compound, which was then analyzed by HPLC—MS. It had the same mass and fragmentation pattern as authentic monacolin J. The other compound, found in only one of the strains, comigrated with monacolin L on TLC and HPLC.

[2] = test system: A. nidulans strains WMH1741 and WMH1742 (WMH1738 transformed with AN26); assay: as above; conditions: 37° C.
Protocol: as §1

Row | Compound | antifungal activity (fungi) | inhibition of growth ([1]; strains WMH1739 and WMH1740, lovastatin at 0, 0.1, 0.5, 1, 5, 10, 50 and 100 μg/ml on solid AMM plates, 37° C.) | lovastatin concentration to which strains were significantly resistant ([1]; strains WMH1739 and WMH1740 compared with the host strain, solid media) | inhibition of growth ([2]; lovastatin 5 μg/ml on solid AMM plates) | inhibition of growth ([2]; lovastatin 50 μg/ml on solid AMM plates)
1 | C[C@H]1C=C2C=C[C@H](C)[C@H](CC[C@@H]3C[C@@H](O)CC(=O)O3)[C@H]2[C@@H](O)C1 [monocolin J, monacolin J] | varying degrees of antifungal activity |  |  |  | 
2 | CC[C@H](C)C(=O)O[C@H]1C[C@@H](C)C=C2C=C[C@H](C)[C@H](CC[C@@H]3C[C@@H](O)CC(=O)O3)[C@H]21 [lovastatin] | varying degrees of antifungal activity | no inhibition of growth | up to 100 μg/ml | slight inhibition | almost complete growth inhibition
3 | C[C@H]1C=C2C=C[C@H](C)[C@H](CC[C@@H]3C[C@@H](O)CC(=O)O3)[C@H]2CC1 [monocolin L, monacolin L] | varying degrees of antifungal activity |  |  |  | 
4 | C[C@@H]1CC[C@@H]2[C@@H](CC[C@@H]3C[C@@H](O)CC(=O)O3)[C@@H](C)C=C[C@H]2C1 [dihydromonocolin L, dihydromonacolin L] | varying degrees of antifungal activity |  |  |  | 

From patent US6943017B2, “Method of producing antihypercholesterolemic agents” (Wisconsin Alumni Research Foundation, priority 1998, dated 2005)
